In test [1] the target is Melanocyte-stimulating hormone receptor (Mus musculus, UniProt Q01727). As to the kind of experiment: Agonistic activity evaluated at melanocortin 1 receptor (MC1R) of mouse HEK293 cells. In kind it is functional, cell-based.
Test [2] addresses Melanocortin receptor 3 (Mus musculus) (UniProt P33033). The experiment in a line: Percent stimulation at melanocortin 3 receptor (MC3R) of mouse HEK293 cells at a concentration of 100 uM. In kind it is cell-based.
In the next test the target is Melanocortin receptor 5 (Mus musculus, UniProt P41149). As to the kind of experiment: Agonistic activity evaluated at melanocortin 5 receptor (MC5R) of mouse HEK293 cells. In kind it is functional, cell-based.
Test [3] has as its target Melanocortin receptor 4 (Mus musculus) (UniProt P56450). The experiment in a line: Agonistic activity at melanocortin 4 receptor (MC4R) of mouse HEK293 cells at a concentration of 100 uM; NA=No activity. It counts as functional, cell-based.
Test [4] has the same target. The experiment in a line: Percent stimulation at melanocortin 4 receptor (MC4R) of mouse HEK293 cells at a concentration of 100 uM. It counts as cell-based.
A further test has as its target Melanocortin receptor 4 (Mus musculus, UniProt P56450). The experiment in a line: Agonistic activity evaluated at melanocortin 4 receptor (MC4R) of mouse HEK293 cells. In kind it is functional, cell-based.
The target in another test is Melanocortin receptor 3 (Mus musculus, UniProt P33033). The experiment in a line: Agonistic activity evaluated at melanocortin 3 receptor (MC3R) of mouse HEK293 cells. In kind it is functional, cell-based.
Test [5] deals with Melanocortin receptor 5 (Mus musculus) (UniProt P41149). As to the kind of experiment: Percent stimulation at melanocortin 5 receptor (MC5R) of mouse HEK293 cells at a concentration of 100 uM. In kind it is cell-based.
Test [6] concerns the target Melanocortin receptor 3 (Mus musculus) (UniProt P33033). As to the kind of experiment: Agonistic activity at melanocortin 3 receptor (MC3R) of mouse HEK293 cells at a concentration of 100 uM; NA=No activity. It counts as functional, cell-based.

Calls of active or inactive are those of the source. The calls are words filed in the database; no cut-off is given here. Where a SMILES comes first, the peptide text is derived from it. [ ]: non-standard residue; d: D form. Gly(N(CH2)2(3-indolyl)) = O=C(O)CNCCc1c[nH]c2ccccc12; Gly(N-CH2CH2-imidazol-4-yl) = O=C(O)CNCCc1c[nH]cn1; N(1-naphthylmethyl)Gly = O=C(O)CNCc1cccc2ccccc12; Gly(N-(CH2)3-guanidino) = N=C(N)NCCCNCC(=O)O; NhArg = N=C(N)NCCCCNCC(=O)O; Nphe = O=C(O)CNCc1ccccc1; Nlys = NCCCCNCC(=O)O

Chain of Melanocortin receptor 5 (P41149 whole entry): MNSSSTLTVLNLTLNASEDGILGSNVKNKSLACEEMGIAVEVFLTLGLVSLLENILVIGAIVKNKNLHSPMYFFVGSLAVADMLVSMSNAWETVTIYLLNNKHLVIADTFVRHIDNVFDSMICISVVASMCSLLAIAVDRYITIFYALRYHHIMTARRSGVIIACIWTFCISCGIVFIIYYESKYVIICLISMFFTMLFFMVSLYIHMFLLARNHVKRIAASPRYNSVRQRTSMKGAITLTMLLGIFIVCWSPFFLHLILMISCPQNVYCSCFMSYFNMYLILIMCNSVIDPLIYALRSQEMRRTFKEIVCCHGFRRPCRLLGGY
Chain of Melanocortin receptor 4 (Mus musculus) (P56450 whole entry): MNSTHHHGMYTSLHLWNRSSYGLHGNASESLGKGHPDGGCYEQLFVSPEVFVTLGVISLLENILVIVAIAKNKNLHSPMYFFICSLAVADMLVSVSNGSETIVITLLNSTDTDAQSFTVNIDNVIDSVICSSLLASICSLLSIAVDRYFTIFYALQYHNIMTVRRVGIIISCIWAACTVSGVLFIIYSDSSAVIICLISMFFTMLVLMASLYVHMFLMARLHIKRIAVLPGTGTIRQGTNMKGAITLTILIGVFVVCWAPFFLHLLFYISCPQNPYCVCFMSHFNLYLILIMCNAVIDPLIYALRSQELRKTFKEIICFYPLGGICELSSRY
Chain of Melanocortin receptor 4 (P56450 whole entry): as above
Chain of Melanocortin receptor 3 (Mus musculus) (P33033 whole entry): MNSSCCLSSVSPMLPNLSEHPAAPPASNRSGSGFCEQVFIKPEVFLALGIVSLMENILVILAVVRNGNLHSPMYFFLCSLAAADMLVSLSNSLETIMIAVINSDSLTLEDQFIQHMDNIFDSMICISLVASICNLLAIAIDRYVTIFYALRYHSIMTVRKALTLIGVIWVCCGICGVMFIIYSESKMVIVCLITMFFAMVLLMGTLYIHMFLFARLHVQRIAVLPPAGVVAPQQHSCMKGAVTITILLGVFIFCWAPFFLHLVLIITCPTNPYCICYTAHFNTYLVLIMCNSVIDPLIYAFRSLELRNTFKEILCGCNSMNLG
Chain of Melanocyte-stimulating hormone receptor (Q01727 whole entry): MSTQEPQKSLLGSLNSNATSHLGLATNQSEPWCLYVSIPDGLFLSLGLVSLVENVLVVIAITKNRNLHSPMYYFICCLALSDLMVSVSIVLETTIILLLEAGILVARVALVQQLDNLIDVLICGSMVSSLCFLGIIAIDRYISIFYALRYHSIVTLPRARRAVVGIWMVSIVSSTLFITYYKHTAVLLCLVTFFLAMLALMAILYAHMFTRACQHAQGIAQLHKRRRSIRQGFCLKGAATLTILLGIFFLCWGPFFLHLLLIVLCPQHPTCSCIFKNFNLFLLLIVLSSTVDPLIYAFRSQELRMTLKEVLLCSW
Chain of Melanocortin receptor 5 (Mus musculus) (P41149 whole entry): as the sequence (P41149 whole entry) above
Chain of Melanocortin receptor 3 (P33033 whole entry): as the sequence (P33033 whole entry) above

Take `CC(=O)N(CC(=O)N(CC(=O)N(CCCCN=C(N)N)CC(=O)N(CC(N)=O)Cc1cccc2ccccc12)Cc1ccccc1)Cc1ccccc1` (Ac-[Nphe][Nphe][NhArg][N(1-naphthylmethyl)Gly]-NH2): the EC50 – broadly, the concentration at which the effect is half-maximal – was 7.6 µM in test [1] and 20 µM on Melanocortin receptor 5. In test [2], this compound had a Stimulation of 55%. In [3], the Stimulation entry was “inactive”.

In the case of `CC(=O)N(CCc1c[nH]cn1)CC(=O)N(CC(=O)N(CCCN=C(N)N)CC(=O)N(CCc1c[nH]c2ccccc12)CC(N)=O)Cc1ccccc1` (Ac-[Gly(N-CH2CH2-imidazol-4-yl)][Nphe][Gly(N-(CH2)3-guanidino)][Gly(N(CH2)2(3-indolyl))]-NH2), the EC50 in test [1] amounted to 6.6 µM; on Melanocortin receptor 5, 5.3 µM. The values for the Stimulation in test [2] and in test [4] were 55% and 65%, respectively.

For `CC(=O)N[C@@H](Cc1cnc[nH]1)C(=O)N[C@@H](Cc1ccccc1)C(=O)N(CCCNC(=N)N)CC(=O)N[C@@H](Cc1c[nH]c2ccccc12)C(N)=O` (Ac-HF[Gly(N-(CH2)3-guanidino)]W-NH2), the half-maximal effective concentration (EC50) was found to be 0.17 µM in [1], 1.1 µM at Melanocortin receptor 4, 0.16 µM on Melanocortin receptor 5 and 9.2 µM on Melanocortin receptor 3.

As to `CC(=O)N[C@@H](Cc1c[nH]cn1)C(=O)N[C@@H](Cc1ccccc1)C(=O)N[C@@H](CCCN=C(N)N)C(=O)N(CCc1c[nH]c2ccccc12)CC(N)=O` (Ac-HFR[Gly(N(CH2)2(3-indolyl))]-NH2), the EC50 in test [1] came to 0.5 µM; at Melanocortin receptor 4, 0.64 µM; on Melanocortin receptor 5, 0.056 µM. Also, the Stimulation in test [2] is 70%.

For the compound `CC(=O)N[C@@H](Cc1cnc[nH]1)C(=O)N(CC(=O)N[C@@H](CCCNC(=N)N)C(=O)N[C@@H](Cc1c[nH]c2ccccc12)C(N)=O)Cc1ccccc1`, the EC50 in [1] amounted to 48 µM.

Regarding `CC(=O)N(CCc1c[nH]cn1)CC(=O)N(CC(=O)N(CCCCN)CC(=O)N(CCc1c[nH]c2ccccc12)CC(N)=O)Cc1ccccc1` (Ac-[Gly(N-CH2CH2-imidazol-4-yl)][Nphe][Nlys][Gly(N(CH2)2(3-indolyl))]-NH2), the EC50 in [1] was determined as 27 µM; on Melanocortin receptor 4, 27.2 µM; on Melanocortin receptor 5 it was 7.38 µM. The Stimulation in test [2] was 75%.

Compound `CC(=O)N(CCc1c[nH]cn1)CC(=O)N[C@@H](Cc1ccccc1)C(=O)N[C@@H](CCCN=C(N)N)C(=O)N[C@@H](Cc1c[nH]c2ccccc12)C(N)=O` (Ac-[Gly(N-CH2CH2-imidazol-4-yl)]FRW-NH2) came in with a Stimulation in test [2] of 60%.

For `CC(=O)N(CC(=O)N[C@@H](Cc1ccccc1)C(=O)N[C@@H](CCCN=C(N)N)C(=O)N[C@@H](Cc1c[nH]c2ccccc12)C(N)=O)Cc1ccccc1` (Ac-[Nphe]FRW-NH2), the values for the EC50 (in test [1]; on Melanocortin receptor 4; at Melanocortin receptor 5) were 0.78 µM, 0.26 µM and 0.36 µM, respectively. The Stimulation in [2] was 25%.

Take `CC(=O)N(CCc1cnc[nH]1)CC(=O)N[C@@H](Cc1ccccc1)C(=O)N[C@@H](CCCNC(=N)N)C(=O)N[C@@H](Cc1c[nH]c2ccccc12)C(N)=O` (Ac-[Gly(N-CH2CH2-imidazol-4-yl)]FRW-NH2): the EC50 was found to be 1.7 µM in [1], 0.88 µM on Melanocortin receptor 4 and 0.53 µM at Melanocortin receptor 5.

On to `CC(=O)N[C@@H](Cc1c[nH]cn1)C(=O)N(CC(=O)N[C@@H](CCCN=C(N)N)C(=O)N[C@@H](Cc1c[nH]c2ccccc12)C(N)=O)Cc1ccccc1`, for which the values for the Stimulation in test [5] and in test [4] were 40% and 20%, respectively. The Stimulation result in [6] is “inactive”.

These data come from ChEMBL document CHEMBL1145871, “Design and pharmacology of peptoids and peptide-peptoid hybrids based on the melanocortin agonists core tetrapeptide sequence” (Bioorg Med Chem Lett, 2003).
